Measurements: publication PMC10492782, “Exploiting the aggregation propensity of beta-lactamases to design inhibitors that induce enzyme misfolding” (Nature Communications, 2023)
Where “and” joins values, the source holds several entries; their conditions need not be identical. Identical values can stand only once.

Tests used:
[1] = pFTAA fluorescence of peptide aggregates; format: physicochemical; settings: 50 μM peptide, PolyP condition
Experimental: (§1) Fig. 4 Aggregation kinetics of TEM and SHV proteins and peptides. A Measurements of the hydrodynamic radius by Dynamic Light Scattering of 50 μM TEM3.2 in buffer alone, or in the presence of LPS or polyphosphate (PolyP). […] C Transmission Electron Micrograph of 50 μM TEM 3.2 incubated for 24 h in the same buffer as A with polyP, negatively stained with 2% (w/v) uranyl acetate. A single representative image is shown. […] Three replicates are shown for each condition. E Aggregation kinetics using pFTAA fluorescence emission of recombinantly purified TEM-1, in the presence of vehicle, or TEM 3.2 peptin, as well as peptin-only control. F Similar as in E, but using an off-target Pept-In, based on an APR sequence of beta-galactosidase. G Similar to E, but now using a previously published off-target Pept-In, based on an APR of HcaB. The plots are the results of a single experiment, all replicates are shown. Source data are provided as a Source Data file.

[2] = biological target: T1, recombinantly purified TEM-1 (Escherichia coli, UniProt P62593); format: biochemical, E. coli; settings: pFTAA fluorescence kinetics
T1 construct: His-tag (N); TEV cleavage site (N); made in house; host or cells: E. coli BL21 (DE3)
T1 sequence (P62593 24-286 limits assumed): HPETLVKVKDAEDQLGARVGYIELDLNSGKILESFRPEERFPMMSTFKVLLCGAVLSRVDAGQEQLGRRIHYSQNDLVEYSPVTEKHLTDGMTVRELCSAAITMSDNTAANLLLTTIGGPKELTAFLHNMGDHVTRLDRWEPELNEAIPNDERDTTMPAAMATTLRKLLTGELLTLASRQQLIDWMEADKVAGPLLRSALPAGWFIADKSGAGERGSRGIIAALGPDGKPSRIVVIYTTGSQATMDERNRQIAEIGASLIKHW
Experimental: as §1

TEM beta-lactamase = biological target: T2, TEM beta-lactamase (Escherichia coli, UniProt P62593); test: β-lactamase activity assay (nitrocefin); format: biochemical; settings: chromogenic substrate nitrocefin, Suppl Fig. 8
T2 construct: His-tag (N); TEV cleavage site (N); made in house; host or cells: E. coli BL21 (DE3)
T2 sequence (P62593 24-286 limits assumed): as above
Experimental: The beta-lactamase assay procedure is based on the hydrolysis of the substrate Nitrocefin, a chromogenic cephalosporin, which produces a colored product (detectable at OD = 490 nm) that is directly proportional to the quantity of beta-lactamase activity. This experiment was carried out in 96-well black polystyrene flat-bottom microtiter plates (BD Biosciences). In brief, 50 μl of different concentrations of peptides or tazobactam in PBS were added to each well, followed by 50 μl of beta-lactamase protein at a final concentration of 12 ng. The plate was incubated at 37 °C for 1 h. The control heat was heated for 1 h at 95 degrees Celsius. Each well received 5 μl of Nitrocefin at a stock concentration of 0.5 mg/mL Nitrocefin. The hydrolyzed Nitrocefin was identified by absorption at 490 nm, which is proportional to the amount of beta-lactamase activity.

human erythrocytes = test: Hemolysis; settings: 2 h at 37 °C, normalized to 1% triton
Experimental: (§2) Fig. 7 Evaluation of in vivo use of peptides that induce the aggregation of TEM beta-lactamase. A Lysis of human erythrocytes (hemolysis) was assessed in the presence of the indicated concentrations of TEM3.2 for 2 h at 37 °C, and normalized to the value obtained with 1% of the detergent triton. […] B Cell viability using the CellTiter Blue assay of HeLa cells treated for 24 h with the indicated concentrations TEM 3.2 at 37 °C. […] DAPI (4’,6-diamidino-2-phenylindole) is blue, while CellMask is red. D Experimental workflow of the in vivo model used in this study. E–G Bacterial load of indicated organs of female C57BL/6JAX mice with a urinary tract infection with E. coli strain UZ_TEM104, treated with 30 mg/kg penicillin (oral) as well 10 mg/kg tazobactam (oral) or 10 mg/kg TEM3.2 via the indicated treatment route. IV intravenous, IP intraperitoneal, SC subcutaneously. The data shown is from a single experiment with 12 animals for each group. The result for each animal is shown as a dot. […] The statistically significant differences were determined using ANOVA, followed by Dunnett’s multiple comparison test. […] Source data are provided as a Source Data file.

[3] = tested on: uro-pathogenic E. coli strain (UPEC strain blaTEM-1); test: Urinary tract infection model, bacterial load in bladder, kidney, ureter; format: in vivo, female C57BL/6JAX mice; design: bacterial load, Ureters / bacterial load, Bladder / bacterial load, Kindey: unit: CFU per mL of tissue extract; settings: each column one mouse
Experimental: as §2
We also performed a tolerability study using a dose escalation method by administering the peptide at 2, 5, 10, 15, and 20 mg/kg via different parenteral routes: intravenous (IV), intraperitoneal (IP), and subcutaneous (SC) in female C57BL/6JAX mice, aged 8–10 weeks (Suppl Table 4). […] Vehicle alone (0.9% NaCl) was also administered (IV). After 24 h the animals were sacrificed and the bacterial load in the bladder, kidney, and ureter was quantified by determining the number of colony-forming units (CFU) per mL of tissue extract (Fig. 7E–G).
To test the efficacy of the peptides, a urinary tract infection model was performed as described previously. Briefly, female C57BL/6Jax mice female mice were deprived of water for at least 1 h. Then, they were anesthetized by IP administration of the mixture of ketamine (Nimatek)/xylazine (XYL-M 2% BE-V170581). The bladder of the mouse was massaged with fingers and pushed down gently to expel the remaining urine. Mice were slowly inoculated urethrally with 50 µL of a bacterial suspension slowly over 5 s to avoid vesicoureteral reflux (10^8 CFU/ mouse) using a sterile catheter (pediatric intravenous-access cannula (GS391350)). The catheter was removed directly after inoculation. After surgery, the animals were visually monitored for full recovery. After 1 h post inoculation, all mice received Ampicillin (30 mg/kg_PO-orally) and at the same time 3 groups of animals received the peptides via different administration routes (10 mg/kg_IV—intravenous; IP—intraperitoneal or SC—sub-cutaneous) and the positive control groups received tazobactam (10 mg/kg, PO). The negative control groups received vehicle or saline (IV administration). 2 h post inoculation, all mice received a second injection with the same concentration of each treatment as explained above. Twenty-four hours post-infection, mice were sacrificed and organs (kidney, bladder, ureter) were washed with PBS and were homogenized (Thermo Savant FastPrep FP120 Homogenizer/24 s). The homogenized tissues were serially diluted and cultured on blood agar plates. The plates were incubated overnight at 37 °C, and the number of bacteria was measured by CFU value.

[4] = tested on: primary Human Umbilical Vein Endothelial Cells (HUVEC); settings: 24 h, 400 to 12.5 µg/mL
Experimental: The Cell Titer Blue assay was performed to evaluate the cell viability according to the instructions of the manufacturer (Promega, USA). The peptide treatments were done in DMEM medium without serum. Briefly, cells were seeded to approximately 20,000 mammalian cells per well in a 96-well flat-bottom plate (BD Biosciences 353075) and incubated at 37 °C with 5% CO2 and 90% humidity. Peptides were diluted in cell medium, and cells were treated for 24 h. 20 μL of the CellTiter Blue reagent was added to each well and the plate was incubated for 1 h at 37 °C. The fluorescence was measured at 590 nm by exciting at 560 nm with a ClarioStar plate reader (BMG Labtech, Germany).

Ac-RLTAFLHNRRPRLTAFLRQRR-NH2 [TEM3.2]
pFTAA staining of fibrils (in words) [1]: stain positive for pentameric formyl thiophene acetic acid (pFTAA)
induction of aggregation of recombinantly purified TEM beta-lactamase (in words) [2]: potent inducer of the aggregation of the TEM beta-lactamase
effect on beta-lactamase enzymatic function (in words) (TEM beta-lactamase): loss of function of the enzymatic function of the beta-lactamase
hemolysis (in words) (human erythrocytes): not hemolytic to human erythrocytes
bacterial load, Bladder ([3]; group IP): 833.333 (2×) and 4533.33 and 14866.7 and 4066.67 and 2533.33 and 900 and 1 (2×) and 37733.3 and 300 (2×)
bacterial load, Kindey ([3]; group IP): 3566.67 and 133.333 and 27833.3 and 2666.67 and 1 (5×) and 4300 and 1700 and 2600
bacterial load, Ureters ([3]; group IP): 6333.33 and 33.3333 and 9933.33 and 233.333 and 1 (5×) and 1166.67 and 133.333 and 2500
bacterial load, Bladder ([3]; group IV): 9200 and 1 (3×) and 6366.67 and 4033.33 and 1500 and 566.667 and 2833.33 and 266.667 and 66.6667 and 1833.33
bacterial load, Kindey ([3]; group IV): 1333.33 and 50433.3 and 24133.3 and 22233.3 and 400 (2×) and 1 (2×) and 29 and 6466.67 and 333.333 and 1900
bacterial load, Ureters ([3]; group IV): 10766.7 and 11733.3 and 2766.67 and 2633.33 and 1 (4×) and 15700 and 9366.67 and 766.667 and 233.333
bacterial load, Bladder ([3]; group Sub): 20866.7 and 166.667 and 3866.67 and 32100 and 933.333 and 300 and 1 (2×) and 1600 and 1500 and 366.667 and 133.333
bacterial load, Kindey ([3]; group Sub): 18933.3 and 1 (6×) and 5766.67 and 66.6667 and 3300 and 4300 and 466.667
bacterial load, Ureters ([3]; group Sub): 5500 and 1 (6×) and 5866.67 and 13433.3 and 2800 and 333.333 and 900
cytotoxicity, Cell Titer Blue (in words) [4]: not cytotoxic
